Laboratory results: PMC11800397, “Identification of the Polymerizing Glycosyltransferase Required for the Addition of D-Glucuronic Acid to the Capsular Polysaccharide of Campylobacter jejuni” (Biochemistry, 2025)

Assays:
[1] = molecular target: T1, Cj1438C (C-terminal domain of Cj1438) (Campylobacter jejuni, UniProt Q0P8H6); assay: product analysis by ESI-MS, 1H and […] NMR; type: biochemical; details: 5.0 mM ATP, 10 mM MgCl2, 50 mM NH4HCO3, pH 8.0, 25 °C, 4 h
T1 construct: C-terminal hexahistidine tag (pET31b(+)); E. coli; 40,084 Da

[2] = test system: CO[C@@H]1O[C@H](CO)[C@@H](O)[C@H]1O; assay: purified protein; details: 2.0 mM UDP-D-GlcA fixed, 0-25 mM substrate, 10 μM enzyme, 50 mM NH4HCO3, pH 8.0, 25 °C

T1 sequence (Q0P8H6 entry or part of it): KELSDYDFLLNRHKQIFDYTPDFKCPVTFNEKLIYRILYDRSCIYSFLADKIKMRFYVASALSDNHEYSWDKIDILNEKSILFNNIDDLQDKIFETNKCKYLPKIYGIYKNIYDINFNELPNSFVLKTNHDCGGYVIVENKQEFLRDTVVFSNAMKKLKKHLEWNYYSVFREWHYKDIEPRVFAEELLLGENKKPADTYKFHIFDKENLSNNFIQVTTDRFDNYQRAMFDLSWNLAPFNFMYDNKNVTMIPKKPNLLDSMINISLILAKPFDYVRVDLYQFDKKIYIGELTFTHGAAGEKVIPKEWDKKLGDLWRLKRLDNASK

CO[C@@H]1O[C@H](CO)[C@@H](O)[C@H]1O[C@H]1O[C@H](C(=O)O)[C@@H](O)[C@H](O)[C@H]1O [7a, compound 7a] was tested, and the “product analysis by ESI-MS, 1H and 31P NMR” value ([1]; 5.0 mM (S)-serinol phosphate) was “Incubation of Cj1438C with ATP, MgCl2, compound 7a, and (S)-serinol-P resulted in the formation”.

N[C@@H](CO)COP(=O)(O)O [(S)-serinol phosphate] was tested, and the “product analysis by ESI-MS, 1H and 31P NMR” value ([1]; 5.0 mM compound 7a) was “Incubation of Cj1438C with ATP, MgCl2, compound 7a, and (S)-serinol-P resulted in the formation”.

Molecule “Cj1432N (N-terminal domain of Cj1432) (Campylobacter jejuni subsp. jejuni NCTC 11168 = ATCC 700819)” has a Km [2] of 0.97 ± 0.09 mM and a kcat [2] of 0.51 ± 0.01 min⁻¹.
